# Assay results reported in patent US20100120690A1, “Polypeptides Having Antimicrobial Activity and Polynucleotides Encoding Same” (Novozymes Adenium Biotech A/S, priority 2005, published 2010).
# System: panel of 6 different strains of Staphylococcus aureus
# Experiment: Average MIC, NCCLS/CLSI guidelines using caMHB (Example 6)
# Type: cell-based
# Details: average over 6 S. aureus strains, duplicate; MIC above 32 counted as 64; read after 18-24 hours at 37° C.
# Description: A large number of antimicrobial peptides of the invention were tested against a panel of 6 different strains of Staphylococcus aureus listed below:
# Staphylococcus aureus, ATCC29213, MSSA, NCCLS reference strain; Staphylococcus aureus, ATCC25923, MSSA, NCCLS reference strain; Staphylococcus aureus, ATCC29737, MSSA; Staphylococcus aureus, E33235, MSSA; Staphylococcus aureus, 698-01, MRSA ST5, Str, Kan, Oxa; Staphylococcus aureus, 566-03, MRSA ST80, Oxa, Tet, Fus, Kan.
# The staphylococci were exposed to the following peptide concentrations: 32; 16; 8; 4; 2; 1; 0.5; 0.25; 0.13; […]; and 0.03 microgram/mL. All peptides were purified, HPLC quantified and the concentrated peptides (>160 micrograms/mL) were diluted to 160 micrograms/mL in peptide dilution buffer (0.1% BSA, 0.01% Acetic Acid).
# The MIC determination was done essentially as described by NCCLS/CLSI guidelines using caMHB. The MICs were read after 18-24 hours of 37° C. incubations and recorded along with the CFU in the table below.
# A total number of 95 antimicrobial peptides of the invention were evaluated in duplicate against the 6 bacterial strains described above.
# In the majority of the double determinations (93%), the MIC varied <2 fold. An average MIC is tabulated below. If the MIC was above 32 micrograms/mL, a value of 64 was used to calculate the average.
row,Substance,Average MIC [micrograms/mL]
1,"D11G + N17I: antimicrobial peptide of the invention, Plectasin variant (GFGCNGPWDEGDMQCHIHCKSIKGYKGGYCAKGGFVCKCY)",16
2,"K26C + Y40YRCG: antimicrobial peptide of the invention, Plectasin variant (GFGCNGPWDEDDMQCHNHCKSIKGYCGGYCAKGGFVCKCYRCG)",11
3,"M13A + Q14K + K26R: antimicrobial peptide of the invention, Plectasin variant (GFGCNGPWDEDDAKCHNHCKSIKGYRGGYCAKGGFVCKCY)",9
4,"M13R + Q14K + K26R: antimicrobial peptide of the invention, Plectasin variant (GFGCNGPWDEDDRKCHNHCKSIKGYRGGYCAKGGFVCKCY)",5
5,"M13S + Q14K + K26R: antimicrobial peptide of the invention, Plectasin variant (GFGCNGPWDEDDSKCHNHCKSIKGYRGGYCAKGGFVCKCY; Synthetic antimicrobial polypeptide)",15

# System: Staphylococcus carnosus ATCC51365
# Experiment: Yeast screening assay: radial diffusion assay of yeast supernatants
# Type: cell-based
# Design: key: An activity of 3 is better than Plectasin; An activity of 2 corresponds to the activity of Plectasin; 1 is worse than Plectasin
# Details: yeast supernatant, clearing zone in radial diffusion assay
# Description: A range of antimicrobial polypeptides, which are variants of SEQ ID NO: 1 (Plectasin), were tested for antimicrobial activity by expressing them in S. cerevisae and screening the supernatant of the yeast transformants for antimicrobial activity against Staphylococcus carnosus ATCC51365.
# Radial Diffusion Assay was carried out as described in Methods in Molecular Biology, Vol. 78, Antibacterial peptide protocol, William M. Shafer, Human Press.
# 200-300 yeast transformant colonies were plated on 14 cm round plates containing 25 mL SC growth medium supplemented with 1.5% galactose, 0.5% glucose and 1.5% agarose. Plates were incubated for three hours at room temperature, overlaid with 25 mL of the same growth medium and allowed to grow for three days at 30° C. Then the plates were overlaid with 25 mL of LB growth medium containing 1.5% agarose and 10^5 cells of the indicator strain Staphylococcus carnosus and incubated at 30° C. overnight to allow growth of the bacterial cells. Next day, the plates were stained with 1.5 mM MTT to facilitate visualization of the clearing zones.
# Yeast colonies creating clearing zones were transferred to microtiter plates containing 200 micro-L of SC growth medium supplemented with 2% glucose and ampicillin (100 mg/L). Such plates designated “master plates” were incubated for 2 days at 30° C. with shaking at 450 rpm to allow yeast growth.
# 10 micro-L SC growth medium from each well of the master plates were transferred to new microtiter plates containing 200 micro-L SC growth medium with 1.5% galactose and 0.5% glucose. These plates were called daughter plates and were incubated for 3 days at 30° C. under 450 rpm shaking to allow yeast growth and peptide synthesis.
# Finally a Radial Diffusion Assay (RDA) was performed following the protocol described in Methods in Molecular Biology to analyse and quantify the antimicrobial activity of the yeast supernatants against S. carnosus.
# Briefly, 30 mL of minimal underlay medium containing 1% agarose and 5×10^5 cfu/mL of S. carnosus was poured in an omnitray plate (Nunc, 242811). A Nunc TSP plate (#445497) was inserted immediately on the plate to allow a 96 well pattern formation. Once the media had solidified, the TSP plate was removed and 10 micro-L of yeast supernatant samples were applied on the holes. Plates were incubated 3 hours at 37° C. and overlaid with 15 mL of LB agar growth medium. Finally, plates were incubated overnight at 37° C. and coloured with 1.5 mM MTT to visualize the clearing zones.
# Inspection and measurements of the clearing zones was performed on the plates. The corresponding yeast clones resulting in clearing zones of similar or increased size than the clones encoding for wild type plectasin were picked from the master plates and transferred to agar plates containing SC growth medium with 2% glucose and ampicillin (100 mg/L). Such plates were incubated for further 2 days at 30° C. to allow yeast growth. Subsequently, colony PCR was performed followed by sequence analysis to identify amino acid changes in the plectasin sequence.
# An activity of 2 corresponds to the activity of Plectasin. An activity of 3 is better than Plectasin, and 1 is worse than Plectasin.
row,Substance,Activity (antimicrobial activity relative to the activity of plectasin)
1,GFGCNGPWDEGDMQCHNHCKSIKGYKGGYCAKGGFVCKCY [Mutation D11G],3
2,GFGCNGPWDEGDMQCHSHCKSIKGYKGGYCAKGGFVCKCY [D11G + N17S],3
3,GFGCNGPWDEHDMQCHNHCKSIKGYKGGYCAKGGFVCKCY [Mutation D11H],3
4,GFGCNGPWDEIDMQCHNHCKSIKGYKGGYCAKGGFVCKCY [Mutation D11I],3
5,GFGCNGPWDEKDMQCHNHCKSIKGYKGGYCAKGGFVCKCY [Mutation D11K],3
6,GFGCNGPWDELDIQCHNHCKSIKGYKGGYCAKGGFVCKCY [D11L + M13I],2
7,GFGCNGPWDELDMQCHNHCKSIKGYKGGYCAKGGFVCKCY [Mutation D11L],3
8,GFGCNGPWDEMDMQCHNHCKSIKGYKGGYCAKGGFVCKCY [Mutation D11M],3
9,GFGCNGPWDENDMQCHNHCKSIKGYKGGYCAKGGFICKCY [D11N + V36I],3
10,GFGCNGPWDEPDMQCHNHCKSIKGYKGGYCAKGGFVCKCY [Mutation D11P],3
11,GFGCNGPWDERDIQCHNHCKSIKGYKGGYCAKGGFVCKCY [D11R + M13I],3
12,GFGCNGPWDERDMQCHNHCKSIKGYKGGYCAKGGFVCKCY [Mutation D11R],3
13,GFGCNGPWDESDMQCHNHCKSIKGYKGGYCAKGGFVCKCY [Mutation D11S],3
14,GFGCNGPWDETDMQCHNHCKSIKGYKGGYCAKGGFVCKCY [Mutation D11T],3
15,GFGCNGPWDEVDMQCHNHCKSIKGYKGGYCAKGGFVCKCY [Mutation D11V],3
16,GFGCNGPWDEWDMQCHNHCKSIKGYKGGYCAKGGFVCKCY [Mutation D11W],3
17,GFGCNGPWDEYDMQCHNHCKSIKGYKGGYCAKGGFVCKCY [Mutation D11Y],3
18,GFGCNGPWDGDDMQCHNHCKSIKGYKGGYCAKGGFVCKCY [Mutation E10G],3
19,GFGCNGPWDGDDMRCHNHCKSIKGYKGGYCAKGGFVCKCY [E10G + Q14R],3
20,GFGCNGPWDLDDMQCHNHCKSIKGYKGGYCAKGGFVCKCY [Mutation E10L],2
21,GFGCNGPWDQDDMQCHNHCKSIKGYKGGYCAKGGFVCKCY [Mutation E10Q],2
22,GFGCNGPWDSDDMQCHNHCKSIKGYKGGYCAKGGFVCKCY [Mutation E10S],3

row,Substance,Activity (antimicrobial activity relative to the activity of plectasin)
1,GFGCNGPWFEDDMQCHNHCKSIKGYKGGYCAKGGFVCKCY [Mutation D9F],3
2,GFGCNGPWHEDDMQCHNHCKSIKGYKGGYCAKGGFVCKCY [Mutation D9H],3
3,GFGCNGPWIEDDMQCHNHCKSIKGYKGGYCAKGGFVCKCY [Mutation D9I],2
4,GFGCNGPWLEDDMQCHNHCKSIKGYKGGYCAKGGFVCKCY [Mutation D9L],3
5,GFGCNGPWLEDDMQCHNHCKSIKGYNGGYCAKGGFVCKCY [D9L + K26N],2
6,GFGCNGPWMEDDMQCHNHCKSIKGYKGGYCAKGGFVCKCY [Mutation D9M],3
7,GFGCNGPWNEDDMQCHNHCKSIKGYKGGYCAKGGFVCKCY [Mutation D9N],3
8,GFGCNGPWPEDDMQCHNHCKSIKGYKGGYCAKGGFVCKCY [Mutation D9P],3
9,GFGCNGPWQEDDMQCHNHCKSIKGYKGGYCAKGGFVCKCY [Mutation D9Q],3
10,GFGCNGPWREDDMQCHNHCKSIKGYKGGYCAKGGFVCKCY [Mutation D9R],2
11,GFGCNGPWTEDDMQCHNHCKSIKGYKGGYCAKGGFVCKCY [Mutation D9T],3
12,GFGCNGPWWEDDMQCHNHCKSIKGYKGGYCAKGGFVCKCY [Mutation D9W],2
13,GFGCNGPWYEDDMQCHNHCKSIKGYKGGYCAKGGFVCKCY [Mutation D9Y],3
14,GFGCNGRWDEDDMQCHNHCKSIKGYKGGYCAKGGFVCKCY [Mutation P7R],3
15,GFGCNGVWDEDDMQCHNHCKSIKGYKGGYCAKGGFVCKCY [Mutation P7V],2
16,GFGCNKPWDEDDMQCHNHCKSIKGYKGGYCAKGGFVCKCY [Mutation G6K],2
17,GFGCNRPWDEDDMQCHNHCKSIKGYKGGYCAKGGFVCKCY [Mutation G6R],2
18,GFGCQGPWDEDDMQCHNHCKSIKGYKGGYCAKGGFVCKCY [Mutation N5Q],3
19,GFGCVGPWDEDDMQCHNHCKSIKGYKGGYCAKGGFVCKCY [Mutation N5V],3
20,GIGCNGPWDEDDMQCHNHCKSIKGYKGGYCAKGGFVCKCY [Mutation F2I],2
21,GLGCNGPWDEDDMQCHNHCKSIKGYKGGYCAKGGFVCKCY [Mutation F2L],2
22,GWGCNGPWDEDDMQCHNHCKSIKGYKGGYCAKGGFVCKCY [Mutation F2W],2
